Laboratory results reported in BindingDB's records for doi:10.1021/acschembio.5b00755 (German Cancer Research Center (Dkfz), 2016).

Biological target: Methionine aminopeptidase 2 (Homo sapiens, UniProt P50579)
Assay: Biochemical Assays
Conditions: pH 7.5
Experimental: Stock solutions for all assays were prepared in DMSO (10 mM) and stored at −20 °C. Assays were performed in 96 well plates (Greiner) at a total reaction volume of 100 μL. […] Then, the substrate Met-Gly-Met-Met was added to a final concentration of 400 μM. After an incubation period of 15 min (HsMetAP1), 20 min (EcMetAP), or 60 min (HsMetAP2) at 37 °C, the enzyme reactionwas stopped by adding 10 μL 4% trifluoroacetic acid (TFA), and the plate was centrifuged at 1000g for 10 min. Detection of the product Gly-Met-Met was performed by HPLC: C18 column (Dr. Maisch, ReproSil-Pur 120 ODS-3, 3 μm, 50 × 2 mm). An 80 μL injection volume was eluted with mobile phases A (H2O and 0.1% TFA, filtered, degasse

Sequence of Methionine aminopeptidase 2 (P50579 whole entry): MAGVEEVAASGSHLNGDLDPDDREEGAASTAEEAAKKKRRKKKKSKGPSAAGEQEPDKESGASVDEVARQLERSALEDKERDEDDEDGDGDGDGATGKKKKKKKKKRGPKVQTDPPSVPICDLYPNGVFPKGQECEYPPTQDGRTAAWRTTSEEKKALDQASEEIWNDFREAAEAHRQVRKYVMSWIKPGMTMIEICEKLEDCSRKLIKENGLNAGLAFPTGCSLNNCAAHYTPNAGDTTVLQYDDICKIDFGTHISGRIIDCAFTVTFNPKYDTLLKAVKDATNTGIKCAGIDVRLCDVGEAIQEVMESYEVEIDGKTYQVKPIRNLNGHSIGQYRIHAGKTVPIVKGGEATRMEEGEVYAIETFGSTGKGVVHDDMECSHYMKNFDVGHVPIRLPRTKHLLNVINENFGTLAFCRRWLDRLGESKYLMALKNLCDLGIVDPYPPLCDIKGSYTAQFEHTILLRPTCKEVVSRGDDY

Compound	IC50
O=C1CCC2(CO2)c2c1nnn2Cc1ccccc1 (centres undefined) [3-benzyl-5,6-dihydrospiro[benzo[d][1,2,3]triazole-4,2'-oxiran]-7(3H)-one (22)]	2900 nM
COc1ccc(Cn2nnc3c2[C@]2(CC[C@H]3NC(=O)OCC(C)C)CO2)cc1 [isobutyl ((2'R*,7R*)-3-(4-methoxybenzyl)-3,5,6,7-tetrahydrospiro[benzo[d][1,2,3]triazole-4,2'-oxiran]-7-yl)carbamate (35)]	600 nM
O=C1CCC2(CO2)c2c1nnn2Cc1ccc(F)cc1 (centres undefined) [3-(4-fluorobenzyl)-5,6-dihydrospiro[benzo[d][1,2,3]triazole-4,2'-oxiran]-7(3H)-one (26)]	250 nM
O=C1CCC2(CO2)c2c1nnn2CC1CCCCC1 (centres undefined) [3-(cyclohexylmethyl)-5,6-dihydrospiro[benzo[d][1,2,3]triazole-4,2'-oxiran]-7(3H)-one (21)]	> 50000 nM
O=C1CCC2(CO2)c2c1nnn2Cc1ccc(Cl)cc1 (centres undefined) [3-(4-chlorobenzyl)-5,6-dihydrospiro[benzo[d][1,2,3]triazole-4,2'-oxiran]-7(3H)-one (27)]	520 nM
Cc1ccccc1Cn1nnc2c1C1(CCC2=O)CO1 (centres undefined) [3-(2-methylbenzyl)-5,6-dihydrospiro[benzo[d][1,2,3]triazole-4,2'-oxiran]-7(3H)-one (23)]	2300 nM
N#Cc1cccc(Cn2nnc3c2C2(CCC3=O)CO2)c1 (centres undefined) [3-((7-oxo-6,7-dihydrospiro[benzo[d][1,2,3]triazole-4,2'-oxiran]-3(5H)-yl)methyl)benzonitrile (24)]	1100 nM
COc1ccc(Cn2nnc3c2C2(CCC3=O)CO2)cc1 (centres undefined) [3-(4-methoxybenzyl)-5,6-dihydrospiro[benzo[d][1,2,3]triazole-4,2'-oxiran]-7(3H)-one (14)]	460 nM
O=C1CCC2(CO2)c2c1nnn2Cc1ccc(C(F)(F)F)cc1 (centres undefined) [3-(4-(trifluoromethyl)benzyl)-5,6-dihydrospiro[benzo[d][1,2,3]triazole-4,2'-oxiran]-7(3H)-one (28)]	440 nM
O=C1CCC2(CO2)c2c1nnn2Cc1ccc2ccccc2c1 (centres undefined) [3-(naphthalen-2-ylmethyl)-5,6-dihydrospiro[benzo[d][1,2,3]triazole-4,2'-oxiran]-7(3H)-one (25)]	590 nM

More lines, now with the values ahead:

IC50	Compound
600 nM	COc1ccc(Cn2nnc3c2[C@]2(CC[C@H]3OC(=O)NCC(C)C)CO2)cc1 (relative stereo) [(2'R*,7R*)-3-(4-methoxybenzyl)-3,5,6,7-tetrahydrospiro[benzo[d][1,2,3]triazole-4,2'-oxiran]-7-yl isobutylcarbamate (32)]
> 50000 nM	C=C1CCC(OC(=O)c2ccccc2)c2nnn(Cc3ccc(OC)cc3)c21 (centres undefined) [1-[(4-methoxyphenyl)methyl]-7-methylidene-4,5,6,7-tetrahydro-1H-1,2,3-benzotriazol-4-yl benzoate (16)]
990 nM	COc1ccc(Cn2nnc3c2[C@]2(CC[C@H]3OC(=O)Nc3ccccc3)CO2)cc1 (relative stereo) [(2'R*,7R*)-3-(4-methoxybenzyl)-3,5,6,7-tetrahydrospiro[benzo[d][1,2,3]triazole-4,2'-oxiran]-7-yl phenylcarbamate (34)]
> 50000 nM	O=C(O[C@H]1CC[C@]2(CO2)c2c1nnn2Cc1ccccc1)c1ccccc1 (relative stereo) [(2'R*,7S*)-3-benzyl-3,5,6,7-tetrahydrospiro [benzo[d][1,2,3]triazole-4,2'-oxiran]-7-yl benzoate (29b)]
780 nM	CC(C)NC(=O)O[C@@H]1CC[C@]2(CO2)c2c1nnn2Cc1ccccc1 (relative stereo) [(2'R*,7R*)-3-benzyl-3,5,6,7-tetrahydrospiro [benzo[d][1,2,3]triazole-4,2'-oxiran]-7-yl isopropylcarbamate (30a)]
930 nM	COc1ccc(Cn2nnc3c2[C@]2(CC[C@H]3OC(=O)c3ccccc3)CO2)cc1 [(2'R*,7R*)-3-(4-methoxybenzyl)-3,5,6,7-tetrahydrospiro[benzo[d][1,2,3]triazole-4,2'-oxiran]-7-yl benzoate (17a)]
1400 nM	O=C(O[C@@H]1CC[C@]2(CO2)c2c1nnn2Cc1ccccc1)c1ccccc1 (relative stereo) [(2'R*,7R*)-3-benzyl-3,5,6,7-tetrahydrospiro [benzo[d][1,2,3]triazole-4,2'-oxiran]-7-yl benzoate (29a)]
35000 nM	COc1ccc(Cn2nnc3c2[C@]2(CC[C@@H]3OC(=O)c3ccccc3)CO2)cc1 [(2'R*,7S*)-3-(4-methoxybenzyl)-3,5,6,7-tetrahydrospiro[benzo[d][1,2,3]triazole-4,2'-oxiran]-7-yl benzoate (17b)]
46000 nM	CC(C)NC(=O)O[C@H]1CC[C@]2(CO2)c2c1nnn2Cc1ccccc1 (relative stereo) [(2'R*,7S*)-3-benzyl-3,5,6,7-tetrahydrospiro [benzo[d][1,2,3]triazole-4,2'-oxiran]-7-yl isopropylcarbamate (30b)]
